Data reported in patent US20220119354A1, “DIAMINO-SUBSTITUTED PYRIDINES AND PYRIMIDINES AS HERBICIDES” (FMC Corporation, priority 2019, published 2022).

How the values were obtained:
Format in all cases: in vivo
[1] = tested on: foxtail, giant (Setaria faberii); test: Test A preemergence, giant foxtail; details: 0 to 100 scale, 0 is no effect, 100 is complete control
Method in brief: (§1)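 Visual injury scored against untreated controls about 10 d after treatment, scale 0 = no effect to 100 = complete control. Compounds, formulated with surfactant in a non-phytotoxic solvent, went on as directed soil spray preemergence or onto 2–10 cm, one- to two-leaf plants postemergence; loam–sand soil, greenhouse.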

[2] = tested on: pigweed (Amaranthus retroflexus); test: Test A preemergence, pigweed; details: 0 to 100 scale, 0 is no effect, 100 is complete control
Method in brief: as §1

[3] = tested on: foxtail, giant (Setaria faberii); test: Test A postemergence, giant foxtail; details: 0 to 100 scale, 0 no effect, 100 complete control
Method in brief: as §1

rice (Oryza sativa) = test: Test B flooded paddy test, rice; details: Flood, 250 g ai/ha, applied to paddy water, 2-leaf stage, visual evaluation after 13 to 15 d
Method in brief: (§2)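 Rating: 0 = no effect, 100 = complete control, visual, relative to untreated plants. Conditions: 2-leaf stage, 3 cm flood kept constant, compound put directly into water, 13–15 d greenhouse.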

[4] = tested on: ragweed (common ragweed, Ambrosia elatior); test: Test A postemergence, ragweed; details: 0 to 100 scale, 0 no effect, 100 complete control
Method in brief: as §1

[5] = tested on: ryegrass, Italian (Lolium multiflorum); test: Test A preemergence, Italian ryegrass; details: 0 to 100 scale, 0 is no effect, 100 is complete control
Method in brief: as §1

[6] = tested on: wheat (Triticum aestivum); test: Test A postemergence, wheat; details: 0 to 100 scale, 0 no effect, 100 complete control
Method in brief: as §1

[7] = tested on: barnyardgrass (Echinochloa crus-galli); test: Test B flooded paddy test, barnyardgrass; details: Flood, 250 g ai/ha, applied to paddy water, 2-leaf stage, visual evaluation after 13 to 15 d
Method in brief: as §2

[8] = tested on: ryegrass, Italian (Lolium multiflorum); test: Test A postemergence, Italian ryegrass; details: 0 to 100 scale, 0 no effect, 100 complete control
Method in brief: as §1

[9] = tested on: galium (catchweed bedstraw, Galium aparine); test: Test A postemergence, galium; details: 0 to 100 scale, 0 no effect, 100 complete control
Method in brief: as §1

kochia (Kochia scoparia) [10] = test: Test A preemergence, kochia; details: 0 to 100 scale, 0 is no effect, 100 is complete control
Method in brief: as §1

[11] = tested on: barnyardgrass (Echinochloa crus-galli); test: Test A preemergence, barnyardgrass; details: 0 to 100 scale, 0 is no effect, 100 is complete control
Method in brief: as §1

kochia (Kochia scoparia) [12] = test: Test A postemergence, kochia; details: 0 to 100 scale, 0 no effect, 100 complete control
Method in brief: as §1

[13] = tested on: pigweed (Amaranthus retroflexus); test: Test A postemergence, pigweed; details: 0 to 100 scale, 0 no effect, 100 complete control
Method in brief: as §1

[14] = tested on: barnyardgrass (Echinochloa crus-galli); test: Test A postemergence, barnyardgrass; details: 0 to 100 scale, 0 no effect, 100 complete control
Method in brief: as §1

corn (Zea mays) = test: Test A postemergence, corn; details: 0 to 100 scale, 0 no effect, 100 complete control
Method in brief: as §1

[15] = tested on: blackgrass (Alopecurus myosuroides); test: Test A postemergence, blackgrass; details: 0 to 100 scale, 0 no effect, 100 complete control
Method in brief: as §1

[16] = tested on: ducksalad (Heteranthera limosa); test: Test B flooded paddy test, ducksalad; details: Flood, 250 g ai/ha, applied to paddy water, 2-leaf stage, visual evaluation after 13 to 15 d
Method in brief: as §2

[17] = tested on: sedge, umbrella (small-flower umbrella sedge, Cyperus difformis); test: Test B flooded paddy test, umbrella sedge; details: Flood, 250 g ai/ha, applied to paddy water, 2-leaf stage, visual evaluation after 13 to 15 d
Method in brief: as §2

[18] = tested on: ragweed (common ragweed, Ambrosia elatior); test: Test A preemergence, ragweed; details: 0 to 100 scale, 0 is no effect, 100 is complete control
Method in brief: as §1

CC(Nc1ncc(C(F)(F)F)c(N)n1)c1cc2ccc(Cl)cc2s1 (racemic) [Compound 70]
100: Plant response rating, Pigweed ([13]; 125 g ai/ha) | Plant response rating, Pigweed ([13]; 500 g ai/ha)
60: Plant response rating, Foxtail, Giant ([3]; 500 g ai/ha)
30: Pigweed plant response rating ([2]; 125 g ai/ha) | Barnyardgrass plant response rating ([11]; 500 g ai/ha) | Plant response rating, Blackgrass ([15]; 500 g ai/ha)
80: Plant response rating, Galium ([9]; 500 g ai/ha) | Plant response rating, Kochia (kochia (Kochia scoparia) [12]; 500 g ai/ha)
0: Foxtail, Giant plant response rating ([1]; 125 g ai/ha) | Plant response rating, Foxtail, Giant ([3]; 125 g ai/ha) | Plant response rating, Rice (0 to 100 scale, 0 is no effect, 100 is complete control) (rice (Oryza sativa)) | Plant response rating, Ragweed ([4]; 125 g ai/ha) | Ryegrass, Italian plant response rating ([5]; 125 g ai/ha) | Ryegrass, Italian plant response rating ([5]; 500 g ai/ha) | Plant response rating, Wheat ([6]; 125 g ai/ha) | Plant response rating, Wheat ([6]; 500 g ai/ha) | Plant response rating, Barnyardgrass (0 to 100 scale, 0 is no effect, 100 is complete control) [7] | Plant response rating, Ryegrass, Italian ([8]; 125 g ai/ha) | Plant response rating, Ryegrass, Italian ([8]; 500 g ai/ha) | Plant response rating, Galium ([9]; 125 g ai/ha) | Kochia plant response rating (kochia (Kochia scoparia) [10]; 125 g ai/ha) | Barnyardgrass plant response rating ([11]; 125 g ai/ha) | Plant response rating, Corn (corn (Zea mays); 125 g ai/ha) | Plant response rating, Corn (corn (Zea mays); 500 g ai/ha) | Plant response rating, Blackgrass ([15]; 125 g ai/ha) | Plant response rating, Ducksalad (0 to 100 scale, 0 is no effect, 100 is complete control) [16] | Plant response rating, Sedge, Umbrella (0 to 100 scale, 0 is no effect, 100 is complete control) [17]
70: Plant response rating, Barnyardgrass ([14]; 500 g ai/ha)
50: Foxtail, Giant plant response rating ([1]; 500 g ai/ha) | Plant response rating, Ragweed ([4]; 500 g ai/ha) | Plant response rating, Kochia (kochia (Kochia scoparia) [12]; 125 g ai/ha)
20: Plant response rating, Barnyardgrass ([14]; 125 g ai/ha) | Ragweed plant response rating ([18]; 125 g ai/ha)
40: Kochia plant response rating (kochia (Kochia scoparia) [10]; 500 g ai/ha)
90: Pigweed plant response rating ([2]; 500 g ai/ha) | Ragweed plant response rating ([18]; 500 g ai/ha)

CC(Nc1ncc(C(F)(F)F)c(N)n1)c1coc2cc(Cl)ccc12 (racemic) [Compound 77]
30: Ryegrass, Italian plant response rating ([5]; 500 g ai/ha) | Plant response rating, Wheat ([6]; 500 g ai/ha) | Plant response rating, Kochia (kochia (Kochia scoparia) [12]; 125 g ai/ha)
50: Plant response rating, Galium ([9]; 125 g ai/ha) | Kochia plant response rating (kochia (Kochia scoparia) [10]; 125 g ai/ha)
100: Plant response rating, Pigweed ([13]; 500 g ai/ha)
40: Foxtail, Giant plant response rating ([1]; 500 g ai/ha) | Pigweed plant response rating ([2]; 125 g ai/ha) | Plant response rating, Ryegrass, Italian ([8]; 500 g ai/ha)
70: Plant response rating, Pigweed ([13]; 125 g ai/ha)
90: Pigweed plant response rating ([2]; 500 g ai/ha) | Plant response rating, Ragweed ([4]; 500 g ai/ha) | Plant response rating, Kochia (kochia (Kochia scoparia) [12]; 500 g ai/ha) | Ragweed plant response rating ([18]; 500 g ai/ha)
0: Plant response rating, Foxtail, Giant ([3]; 125 g ai/ha) | Plant response rating, Rice (0 to 100 scale, 0 is no effect, 100 is complete control) (rice (Oryza sativa)) | Plant response rating, Barnyardgrass (0 to 100 scale, 0 is no effect, 100 is complete control) [7] | Plant response rating, Ryegrass, Italian ([8]; 125 g ai/ha) | Barnyardgrass plant response rating ([11]; 125 g ai/ha) | Barnyardgrass plant response rating ([11]; 500 g ai/ha) | Plant response rating, Barnyardgrass ([14]; 125 g ai/ha) | Plant response rating, Barnyardgrass ([14]; 500 g ai/ha) | Plant response rating, Corn (corn (Zea mays); 125 g ai/ha) | Plant response rating, Blackgrass ([15]; 125 g ai/ha) | Plant response rating, Blackgrass ([15]; 500 g ai/ha) | Plant response rating, Ducksalad (0 to 100 scale, 0 is no effect, 100 is complete control) [16] | Plant response rating, Sedge, Umbrella (0 to 100 scale, 0 is no effect, 100 is complete control) [17]
60: Kochia plant response rating (kochia (Kochia scoparia) [10]; 500 g ai/ha)
20: Foxtail, Giant plant response rating ([1]; 125 g ai/ha) | Plant response rating, Foxtail, Giant ([3]; 500 g ai/ha) | Plant response rating, Ragweed ([4]; 125 g ai/ha) | Ryegrass, Italian plant response rating ([5]; 125 g ai/ha) | Plant response rating, Wheat ([6]; 125 g ai/ha) | Plant response rating, Corn (corn (Zea mays); 500 g ai/ha)
80: Plant response rating, Galium ([9]; 500 g ai/ha) | Ragweed plant response rating ([18]; 125 g ai/ha)
